Data set [1] concerns isolated electrically stimulated left auricle of the guinea pig. The experiment in a line: Effect on the effective refractory period of the isolated electrically stimulated left auricle of the guinea pig (maximum driving frequency). The note with it: Cavia porcellus, Tyrode solution 37° C, mean change 5 and 10 minutes after addition, graphically determined from dose-response-curves, read-out: EC50 (concentration which reduces the maximum driving frequency by 50%). The protocol:
1. Effect on the effective refractory period of the isolated electrically stimulated left auricle of the guinea pig
Guinea pigs of both sexes were killed by a blow on the neck. After opening the thorax, the heart was quickly removed and transferred to a Tyrode solution (37° C). The auricles were therein dissected, and only the left auricles were used. Electrical stimulation was performed by a Grass Stimulator, S4G, with square wave impulses of 1 millisecond duration and a stimulation voltage of 12 V. The auricles were suspended in Tyrode solution at 37° C containing NaCl: 136.8 mval/liter; KCl: 2.68 mval/liter; MgCl2 : 0.2625 mval/liter; NaH2 PO4 : 0.417 mval/liter; NaHCO3 : 11.9 mval/liter; CaCl2 : 1.8 mval/liter; glucose: 3 gm. The solution was continuously oxygenated with 98% O2 and 2% CO2. The isometric contractions were measured with a force-displacement transducer and recorded on a Grass-polygraph (P5).
The auricles were stimulated with 0.5 Hz. The maximum driving frequency was measured by increasing the stimulation rate every 10 seconds by 1 Hz. Measurements were performed three times every 5 minutes before and 5 and 10 minutes after the addition of the test compound. During the rest periods between the measurements the stimulation frequency was 0.5 Hz.
The effect of the compound was calculated as the mean change of maximum driving frequency 5 and 10 minutes after adding the compound. The compound was tested by increasing the concentration to obtain dose-response-curves and to calculate the EC50.
The maximum driving frequency is measured by increasing the stimulation rate. When the interval between two stimuli is shortened, a stimulation rate is reached at which every second stimulation falls into the refractory period of the foregoing contraction and will not be answered with a contraction. Thus, the maximum driving frequency is a measure for the effective refractory period. Compounds which reduce the maximum driving frequency prolong the refractory period.
From the dose-response-curves the following concentrations, which reduce the maximum driving frequency by 50%, were graphically determined: […]

Data set [2] deals with chloroform-induced ventricular fibrillation in mice. The experiment in a line: Antiarrhythmic activity against chloroform-induced ventricular fibrillation in mice. Format: in vivo. Conditions: Mus musculus, iv, 1 minute before inducing ventricular fibrillation; male mice 20-25 gm; read-out: ED50 (dose which reduces the number of animals which show fibrillations by 50%). The protocol: 2. Antiarrhythmic activity against chloroform-induced ventricular fibrillation in mice
Upon putting a mouse into a chloroform-saturated atmosphere, the animal is anaesthetized after 40 seconds, the spontaneous respiration stops, and after 20 seconds more, gasping respiration is seen.
During 1 minute after opening the thorax spontaneous ventricular fibrillation can be obtained in nearly all the animals or can be induced in others by touching the heart with tweezers.
Pretreatment with antiarrhythmic compounds reduces the number of animals which show fibrillations in a dose-dependent way. The dose which reduces the number of animals by 50% (ED50) is calculated by means of dose-response-curves, and the standard error is determined [Miller, L.C. and Tainter, M.L., Proc. Soc. Exp. Biol. Med. 57, 261 (1944)].
The tests were performed on male mice having a body weight of 20-25 gm. Each dose was tested on 10 animals.
The compounds were administered intravenously 1 minute before inducing ventricular fibrillation.

Data set [3] can be described thus: Acute toxicity in mice. The note with it: mouse, in vivo, observation time: 14 days. On the procedure:
The acute toxicity of the test compounds was determined in mice (observation time: 14 days) after oral and/or intravenous application. The LD50 was calculated from the percentage of animals which died within the observation time after administration of various doses [see J. Pharmacol. exp. Therap. 96, 99 (1949)].

The mark [4] stands for this setting: intravenous, read-out: LD50 i.v.

Consider 9 molecules from patent publication US4031219A, “Bis-homophthalimides and salts thereof” (Boehringer Ingelheim GmbH, priority 1975, dated 1977).

≈ marks a conversion by molar mass, not a printed value. Read-outs that look alike come from different tables or passages of the source.

Take `CN(CCCN1C(=O)c2ccccc2C(C)(C)C1=O)CCCN1C(=O)c2ccccc2C(C)(C)C1=O` [A, n,n-bis-[3-(3,4-dihydro-4,4-dimethyl-1,3-dioxo-2-(1H)-isoquinolyl)-propyl]-methylamine]: the EC50 in data set [1] amounted to 5.5 µg/mL (≈ 11.2 µM). Moreover, the median effective dose (ED50) (usually the dose at which the effect has come halfway, by size or by number of responders) in data set [2] was determined as 1.2 mg/kg.

As for `CC1(C)C(=O)N(CCCNCCCN2C(=O)c3ccccc3C(C)(C)C2=O)C(=O)c2ccccc21` [B, N,N-bis-[3-(3,4-dihydro-4,4-dimethyl-1,3-dioxo-2(1H)-isoquinolyl)propyl]-amine], the EC50 in data set [1] worked out at 8 µg/mL (≈ 16.8 µM). Also, the LD50 (as a rule, the dose expected to kill half of the subjects tested) at 336 h in data set [3] (oral, read-out: LD50 p.o.) is 123 mg/kg. For the same molecule, the ED50 in data set [2] was 2.5 mg/kg.

As to `CC1(C)C(=O)N(CCNCCN2C(=O)c3ccccc3C(C)(C)C2=O)C(=O)c2ccccc21` [I, bis-[2-(3,4-dihydro-4,4-dimethyl-1,3-dioxo-2(1H)-isoquinolyl)-ethyl]-amine], the EC50 in data set [1] came to 2.2 µg/mL (≈ 4.92 µM). Further, the LD50 at 336 h was found to be 15 mg/kg in data set [3] (setting [4]) and 315 mg/kg in data set [3] (oral, read-out: LD50 p.o.). The ED50 in data set [2] worked out at 4.7 mg/kg.

Regarding `CCN(CCCN1C(=O)c2ccccc2C(C)(C)C1=O)CCCN1C(=O)c2ccccc2C(C)(C)C1=O` [C, n,n-bis-[3-(3,4-dihydro-4,4-dimethyl-1,3-dioxo-2(1H)-isoquinolyl)-propyl]-ethylamine], the EC50 in data set [1] turned out to be 2 µg/mL (≈ 3.97 µM). The ED50 in data set [2] worked out at 0.5 mg/kg.

For `CC1(C)C(=O)N(CCCNCCN2C(=O)c3ccccc3C(C)(C)C2=O)C(=O)c2ccccc21` [G, n-[2-(3,4-dihydro-4,4-dimethyl-1,3-dioxo-2(1H)-isoquinolyl)-ethyl]-N-[3-(3,4-dihydro-4,4-dimethyl-1,3-dioxo-2(1H)-isoquinolyl)-propyl]-amine], the EC50 in data set [1] came to 2.7 µg/mL (≈ 5.85 µM). In data set [2], the median effective dose (ED50) stood at 4.7 mg/kg.

In the case of `COc1ccc2c(c1)C(=O)N(CCN(C)CCCN1C(=O)c3ccccc3C(C)(C)C1=O)C(=O)C2(C)C` [D, n-[2-(3,4-dihydro-7-methoxy-4,4-dimethyl-1,3-dioxo-2-(1H)-isoquinolyl)-ethyl]-N-[3-(3,4-dihydro-4,4-dimethyl-1,3-dioxo-2(1H)-isoquinolyl)-propyl]-methylamine], the EC50 in data set [1] came out at 4.2 µg/mL (≈ 8.31 µM). The ED50 in data set [2] came out at 3.6 mg/kg.

For the molecule `CC1(C)C(=O)N(CCCCNCCCN2C(=O)c3ccccc3C(C)(C)C2=O)C(=O)c2ccccc21` [H, [3-(3,4-dihydro-4,4-dimethyl-1,3-dioxo-2(1H)-isoquinolyl)-propyl]-[4-(3,4-dihydro-4,4-dimethyl-1,3-dioxo-2(1H)-isoquinolyl)-butyl]-amine], the EC50 in data set [1] was determined as 10 µg/mL (≈ 20.4 µM). Besides, the 50% effective dose (ED50) in data set [2] came to 3 mg/kg.

Turning to `CC1(C)C(=O)N(CCCCNCCN2C(=O)c3ccccc3C(C)(C)C2=O)C(=O)c2ccccc21` [J, [2-(3,4-dihydro-4,4-dimethyl-1,3-dioxo-2(1H)-isoquinolyl)-ethyl]-[4-(3,4-dihydro-4,4-dimethyl-1,3-dioxo-2(1H)-isoquinolyl)-butyl]-amine], the EC50 in data set [1] was found to be 1.8 µg/mL (≈ 3.78 µM). Also, the LD50 at 336 h in data set [3] (setting [4]) worked out at 10.5 mg/kg; in data set [3] (oral, read-out: LD50 p.o.), 210 mg/kg. The ED50 in data set [2] stood at 2.8 mg/kg.

As to `CN(CCN1C(=O)c2ccccc2C(C)(C)C1=O)CCN1C(=O)c2ccccc2C(C)(C)C1=O` [F, n,n-bis-[2-(3,4-dihydro-4,4-dimethyl-1,3-dioxo-2(1H)-isoquinolyl)-ethyl]-methylamine], the median effective dose (ED50) in data set [2] is 4.6 mg/kg.
